We go through two compounds from patent US12077503B2, “Substituted cyclic amides and their use as herbicides” (FMC CORPORATION, priority 2015, dated 2024).

Where two headings read alike, the source gives them in different places.

Holding throughout (type): in vivo
The subject of experiment [1] is giant foxtail (Setaria faberii). The experiment in a line: Test A preemergence. As to conditions: Setaria faberi, pre-emergence, 240 h; for pest or weed control at 125 g/ha: 125 g ai/ha; for pest or weed control at 500 g/ha: 500 g ai/ha. In a few lines:
(§1)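 Preemergence soil spray on seeded pots or post-emergence spray on 1–2 leaf plants, in loam–sand blend. Greenhouse ~10 d. Visual rating 0–100 against untreated plants.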

Experiment [2] deals with Galium (catchweed bedstraw, Galium aparine). The experiment in a line: Test A postemergence. The settings on record: Galium, post-emergence, 240 h; for pest or weed control at 125 g/ha: 125 g ai/ha. The method, boiled down: as §1
The test system of a further experiment is Kochia (Kochia scoparia). The experiment in a line: Test A postemergence. The settings on record: Bassia scoparia, post-emergence, 240 h; for pest or weed control at 125 g/ha: 125 g ai/ha. In a few lines: as §1
Experiment [3] relates to barnyardgrass (Echinochloa crus-galli). Description: Test A postemergence. The settings on record: Echinochloa crus-galli, post-emergence, 240 h; for pest or weed control at 125 g/ha: 125 g ai/ha. In a few lines:
as §1

For experiment [4], the system named is blackgrass (Alopecurus myosuroides). Description: Test A postemergence. The settings on record: Alopecurus myosuroides, post-emergence, 240 h; for pest or weed control at 125 g/ha: 125 g ai/ha. The method, boiled down:
as §1

Another experiment concerns corn (Zea mays). Description: Test A postemergence. The settings on record: Zea mays, post-emergence, 240 h. In a few lines:
as §1

Experiment [5] has as its system giant foxtail (Setaria faberii). The experiment in a line: Test A postemergence. As to conditions: Setaria faberi, post-emergence, 240 h; for pest or weed control at 125 g/ha: 125 g ai/ha. The method, boiled down:
as §1

Experiment [6] deals with pigweed (Amaranthus retroflexus). Description: Test A postemergence. As to conditions: Amaranthus retroflexus, post-emergence, 240 h; for pest or weed control at 125 g/ha: 125 g ai/ha. The method, boiled down:
as §1

In experiment [7] the test system is ragweed (common ragweed, Ambrosia elatior). Description: Test A postemergence. The settings on record: Ambrosia artemisiifolia, post-emergence, 240 h; for pest or weed control at 125 g/ha: 125 g ai/ha. The method, boiled down:
as §1

For experiment [8], the system named is ryegrass, Italian (Italian ryegrass, Lolium multiflorum). Description: Test A postemergence. As to conditions: Lolium multiflorum, post-emergence, 240 h; for pest or weed control at 125 g/ha: 125 g ai/ha. The method, boiled down:
as §1

In experiment [9] the test system is wheat (Triticum aestivum). Description: Test A postemergence. As to conditions: Triticum aestivum, post-emergence, 240 h; for plant injury at 125 g/ha: 125 g ai/ha. In a few lines:
as §1

For experiment [10], the system named is barnyardgrass (Echinochloa crus-galli). Description: Test B flooded paddy test. As to conditions: Echinochloa crus-galli, 250 g ai/ha, Flood, read-out: Barnyardgrass plant response rating. In a few lines:
(§2)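 Percent control, visually estimated after 13–15 d in the greenhouse on a 0–100 basis, compares treated pots with untreated ones; compound was put into paddy water 3 cm above the soil when plants had two leaves.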

Experiment [11] concerns ducksalad (Heteranthera limosa). Description: Test B flooded paddy test. As to conditions: Heteranthera limosa, 250 g ai/ha, Flood, read-out: Ducksalad plant response rating. In a few lines:
as §2

The next experiment has as its system rice (Oryra sativa). Description: Test B flooded paddy test. The settings on record: Oryza sativa, 250 g ai/ha, Flood, read-out: Rice plant response rating. In a few lines:
as §2

Experiment [12] relates to sedge, umbrella (small-flower umbrella sedge, Cyperus difformis). Description: Test B flooded paddy test. As to conditions: Cyperus difformis, 250 g ai/ha, Flood, read-out: Sedge, Umbrella plant response rating. In a few lines: as §2
The mark [13] stands for this setting: 0 to 100 scale where 0 is no effect and 100 is complete control.
The mark [14] stands for this setting: scale of 0 to 100 where 0 is no effect and 100 is complete control.

For the compound `Cc1ccc([C@H]2CN(C)C(=O)[C@@H]2C(=O)Nc2cccc(F)c2C)cc1Cl` [Compound 1014], the pest or weed control at 125 g/ha in experiment [1] (Preemergence, visual injury rating after approximately 10 d, read-out: Foxtail, Giant plant response rating (0 to 100 scale, 0 is no effect, 100 is complete control)) was determined as 90%; in experiment [2] (Postemergence, visual injury after approximately 10 d, 0 to 100 scale where 0 is no effect and 100 is complete control, read-out: Plant response rating, Galium), 20%; in the experiment on Kochia (Kochia scoparia) (Postemergence, visual injury after approximately 10 d, 0 to 100 scale where 0 is no effect and 100 is complete control, read-out: Plant response rating, Kochia) it was 30%; in [3] (Postemergence, visual injury after approximately 10 d, 0 to 100 scale where 0 is no effect and 100 is complete control, read-out: Plant response rating, Barnyardgrass) it was 90%; in [4] (Postemergence, visual injury after approximately 10 d, 0 to 100 scale where 0 is no effect and 100 is complete control, read-out: Plant response rating, Blackgrass), 0%; in experiment [5] (Postemergence, visual injury after approximately 10 d, 0 to 100 scale where 0 is no effect and 100 is complete control, read-out: Plant response rating, Foxtail, Giant), 90%. The pest or weed control at 125 g/ha in experiment [6] (Postemergence, visual injury after approximately 10 d, 0 to 100 scale where 0 is no effect and 100 is complete control, read-out: Plant response rating, Pigweed) was 30%; in [7] (Postemergence, visual injury after approximately 10 d, 0 to 100 scale where 0 is no effect and 100 is complete control, read-out: Plant response rating, Ragweed), 0%; in experiment [8] (Postemergence, visual injury after approximately 10 d, 0 to 100 scale where 0 is no effect and 100 is complete control, read-out: Plant response rating, Ryegrass, Italian), 30%. Besides, the pest or weed control at 500 g/ha in experiment [1] (preemergence, visual injury rating about 10 d after treatment, 0 to 100 scale (0 no effect, 100 complete control), read-out: Foxtail, Giant plant response rating) came to 90%; in [2] (500 g ai/ha, postemergence, visual injury, 0 to 100 scale (0 no effect, 100 complete control), approx. 10 d, read-out: Plant response rating, Galium), 60%; in the experiment with Kochia (Kochia scoparia) (500 g ai/ha, postemergence, visual injury, 0 to 100 scale (0 no effect, 100 complete control), approx. 10 d, read-out: Plant response rating, Kochia), 50%; in [3] (500 g ai/ha, postemergence, visual injury, 0 to 100 scale (0 no effect, 100 complete control), approx. 10 d, read-out: Plant response rating, Barnyardgrass) it was 90%; in [4] (500 g ai/ha, postemergence, visual injury, 0 to 100 scale (0 no effect, 100 complete control), approx. 10 d, read-out: Plant response rating, Blackgrass), 50%; in experiment [5] (500 g ai/ha, postemergence, visual injury, 0 to 100 scale (0 no effect, 100 complete control), approx. 10 d, read-out: Plant response rating, Foxtail, Giant), 90%. Moreover, the pest or weed control at 500 g/ha in [6] (500 g ai/ha, postemergence, visual injury, 0 to 100 scale (0 no effect, 100 complete control), approx. 10 d, read-out: Plant response rating, Pigweed) worked out at 30%; in [7] (500 g ai/ha, postemergence, visual injury, 0 to 100 scale (0 no effect, 100 complete control), approx. 10 d, read-out: Plant response rating, Ragweed), 30%; in experiment [8] (500 g ai/ha, postemergence, visual injury, 0 to 100 scale (0 no effect, 100 complete control), approx. 10 d, read-out: Plant response rating, Ryegrass, Italian) it was 60%. The compound also had a Corn plant response rating (crop injury, 0 = no effect, 100 = complete kill) at 125 g/ha in the experiment with corn (Zea mays) (125 g ai/ha, Postemergence, visual injury after approximately 10 d, 0 to 100 scale where 0 is no effect and 100 is complete control) of 70%. This compound yielded a Corn plant response rating (crop injury, 0 = no effect, 100 = complete kill) at 500 g/ha in the experiment with corn (Zea mays) (500 g ai/ha, postemergence, visual injury, 0 to 100 scale (0 no effect, 100 complete control), approx. 10 d) of 90%. Further, in experiment [9] (Postemergence, visual injury after approximately 10 d, 0 to 100 scale where 0 is no effect and 100 is complete control, read-out: Plant response rating, Wheat), the plant injury at 125 g/ha worked out at 30%. Also, the plant injury at 500 g/ha in experiment [9] (500 g ai/ha, postemergence, visual injury, 0 to 100 scale (0 no effect, 100 complete control), approx. 10 d, read-out: Plant response rating, Wheat) stood at 80%. In addition, the pest or weed control at 250 g/ha turned out to be 100% in experiment [10] (setting [13]), 85% in experiment [11] (setting [13]), 70% with rice (Oryra sativa) (setting [13]) and 0% in [12] (setting [13]).
As to `CN1C[C@H](c2cccc(COC(F)F)c2)[C@@H](C(=O)Nc2ccccc2F)C1=O` [Compound 875], the pest or weed control at 125 g/ha in [1] (preemergence, 0 to 100 scale where 0 is no effect and 100 is complete control, read-out: Foxtail, Giant plant response rating) amounted to 90%; in experiment [2] (postemergence, visual injury rating after approximately 10 d, read-out: Galium plant response rating (0 to 100 scale, 0 no effect, 100 complete control)) it was 40%; in the experiment with Kochia (Kochia scoparia) (postemergence, visual injury rating after approximately 10 d, read-out: Kochia plant response rating (0 to 100 scale, 0 no effect, 100 complete control)) it was 40%; in experiment [3] (postemergence, visual injury rating after approximately 10 d, read-out: Barnyardgrass plant response rating (0 to 100 scale, 0 no effect, 100 complete control)), 90%; in experiment [4] (postemergence, visual injury rating after approximately 10 d, read-out: Blackgrass plant response rating (0 to 100 scale, 0 no effect, 100 complete control)), 20%; in [5] (postemergence, visual injury rating after approximately 10 d, read-out: Foxtail, Giant plant response rating (0 to 100 scale, 0 no effect, 100 complete control)), 90%. Moreover, the pest or weed control at 125 g/ha was found to be 0% in [6] (postemergence, visual injury rating after approximately 10 d, read-out: Pigweed plant response rating (0 to 100 scale, 0 no effect, 100 complete control)); 20% in experiment [7] (postemergence, visual injury rating after approximately 10 d, read-out: Ragweed plant response rating (0 to 100 scale, 0 no effect, 100 complete control)); 20% in experiment [8] (postemergence, visual injury rating after approximately 10 d, read-out: Ryegrass, Italian plant response rating (0 to 100 scale, 0 no effect, 100 complete control)). Also, the pest or weed control at 500 g/ha in experiment [1] (Preemergence, visual injury vs untreated controls after approximately 10 d, read-out: Foxtail, Giant plant response rating (0 to 100 scale where 0 is no effect and 100 is complete control)) came to 90%. For the same compound, the plant injury at 125 g/ha in the experiment on corn (Zea mays) (125 g ai/ha, postemergence, visual injury rating after approximately 10 d, read-out: Corn plant response rating (0 to 100 scale, 0 no effect, 100 complete control)) is 20%; in experiment [9] (postemergence, visual injury rating after approximately 10 d, read-out: Wheat plant response rating (0 to 100 scale, 0 no effect, 100 complete control)) it was 0%. Further, the pest or weed control at 250 g/ha in experiment [10] (setting [14]) was 70%; in [11] (setting [14]), 100%; in the experiment with rice (Oryra sativa) (setting [14]), 0%; in experiment [12] (setting [14]) it was 0%.
